Assay results taken from publication PMC8445934, “Transformation of tenofovir into stable ProTide nanocrystals with long-acting pharmacokinetic profiles” (Nature Communications, 2021).
Converted amounts (≈) assume the structure as drawn. “And” between values parts separate entries of the source, which are not always exact repeats. Equal entries are not always repeated. Where two headings read alike, the source gives them in different places.

Columns and labels:
HIV-1NL4–3-eGFP = experiment: microbe, parasite or virus in culture; assay type: cell-based; details: replicates
Description: Supplementary Fi gur e 9. ProTide Biological Characterizations. […]
(1 picture or pasted object on this page, not shown here)

[1] = Aqueous and 1-octanol solubility (excess drug, shaking 48 h, UPLC-UV); assay type: physicochemical; details: for solubility at 48 h: water, thermodynamic from solid
Description: Samples were centrifuged at 20,000 × g for 10 min to separate the solubilized drug from insoluble pellet. Aqueous supernatants were frozen, lyophilized, and then resuspended in MeOH. 1-octanol supernatants were prepared for analysis by dilution in MeOH and samples analyzed for drug content by UPLC-UV (Waters Acquity H Class).

[2] = Prodrug stability in human plasma with or without heat-inactivation; assay type: in vitro ADME
Description: Point 4. “It would be interesting to see what happens with separate injection at 56 days. Will mast cells occur or was a IgG or IGM response measured?”
Response: The transient presence of mast cells at the intramuscular site of injection is a normal physiological tissue injury response and has been previously observed after intramuscular injection of phosphate buffered saline or aqueous nanocrystalline compounds (Journal of the Neurological Sciences […]
al, mast cells could affect host protein adsorption to the particle surface to influence phagocytosis efficiency, lymphatic nanoparticle uptake and prodrug hydrolytic susceptibility. Other findings by Paquette et al. noted that the foreign body response observed following intramuscular or subcutaneous dosing of […]
Res. 2014; 31(8): 2065–2077). […]
immunogenicity markers were previously measured (PLoS One. 2015 Dec 30;10(12):e0145966. doi:
10.1371/journal.pone.0145966). In our prior studies we have assessed temporal leukocyte responses, drug uptake and distribution following multiple site injection of nanoformulated drugs. […]
inflammatory responses heralded drug distribution to macrophage populations, regional lymph nodes, spleen and liver. This proceeded changes in myeloid populations as determined through flow cytometric tests of changed CD45, CD3, CD11b, F4/80, and GR-1 surface markers. […]

HIV-1ADA = experiment: Antiretroviral EC50/IC50 in MDM by HIV-1 RT activity after HIV-1ADA challenge; assay type: cell-based; details: for EC50: Human immunodeficiency virus 1, 240 h; for HIV-1 RT activity (Figure 2C source data): MDM, HIV-1ADA, replicates
Description: To determine long-term antiretroviral efficacy following a single treatment, MDMs were plated in flat-bottom 12-well plates at a density of 1.2 × 10^6 cells/well. […] After treatment, the cells were washed twice with PBS and cultured in a fresh culture medium without drug with half-media replacement every other day. On days 1, 5, 10, 15, 20, 25, and 30 following treatment, the cells were infected with HIV-1ADA (a macrophage-tropic viral strain) at a multiplicity of infection of 0.1 infectious particles/cell for 8 h. MDM were cultured, and media samples collected on day 10 for the measurement of HIV reverse transcriptase (RT) activity as previously described[64],[65]. Cells were fixed in 2% PFA at each time point, and expression of the HIV-1p24 antigen was determined by immunocytochemistry. […] After 4 h of viral challenge, the cells were washed with PBS and given fresh media that contained the same concentrations of drug (0.00005–5,000 nM). Cell supernatants were collected 10 days later and assayed for HIV-1 RT activity as described above. Replicate studies were performed in CEM-ss CD4+ T-cell cultures. Specifically, cells were plated in 96-well plates, centrifuged at 650 × g for 5 min, and resuspended in (0.1–1,000 nM) drug-containing media for 1 h. The subsequent challenge with HIV-1NL4–3-eGFP, cell culture, sample collection, and determination of HIV-1 RT activity were performed as previously reported[13],[15].

[3] = Prodrug chemical stability of dissociated nanoformulations in pH 2.0-10.3 buffers; assay type: physicochemical; details: buffers pH 2.0-10.3, 24 h
Description: The mixtures were centrifuged at 16,000 × g for 10 min. The supernatants were aspirated and stored at −80 °C until ultraperformance liquid chromatography tandem mass spectrometry (UPLC-MS/MS) analysis.

[4] = cited from earlier work
HIV-1 = details: cited from earlier work
[5] = Log Drug Concentration (uM) -12
[6] = Figure 1C source data, read-out: water solubility, individual replicates
[7] = room temperature, 48 h, read-out: aqueous solubilities

Compound | % GFP Positive (HIV-1NL4–3-eGFP; Log Drug Concentration (uM) 0) | % GFP Positive (HIV-1NL4–3-eGFP; Log Drug Concentration (uM) -1) | % GFP Positive (HIV-1NL4–3-eGFP; Log Drug Concentration (uM) -2) | % GFP Positive (HIV-1NL4–3-eGFP; Log Drug Concentration (uM) -3) | % GFP Positive (HIV-1NL4–3-eGFP; Log Drug Concentration (uM) -4) | % GFP Positive (HIV-1NL4–3-eGFP; Log Drug Concentration (uM) -5) | % GFP Positive (HIV-1NL4–3-eGFP; Log Drug Concentration (uM) -6) | % GFP Positive (HIV-1NL4–3-eGFP; Log Drug Concentration (uM) -9) | % GFP Positive (HIV-1NL4–3-eGFP; [5]) | water solubility, individual replicates ([1]; Figure 1C source data) | solubility at 48 h [1, 6] [µg/mL] | solubility at 48 h [1, 7] [µg/mL] | EC50 (HIV-1ADA) [nM] | HIV-1 RT activity (Figure 2C source data) (HIV-1ADA; 5e-5 nM) | HIV-1 RT activity (Figure 2C source data) (HIV-1ADA; 0.0005 nM) | HIV-1 RT activity (Figure 2C source data) (HIV-1ADA; 0.005 nM) | HIV-1 RT activity (Figure 2C source data) (HIV-1ADA; 0.05 nM) | HIV-1 RT activity (Figure 2C source data) (HIV-1ADA; 0.5 nM) | HIV-1 RT activity (Figure 2C source data) (HIV-1ADA; 5 nM) | HIV-1 RT activity (Figure 2C source data) (HIV-1ADA; 50 nM) | further results
CCCCCCCCCCCCCCCCCCCCCCOC(=O)[C@H](Cc1ccccc1)NP(=O)(CO[C@H](C)Cn1cnc2c(N)ncnc21)Oc1ccccc1 (stereo partly drawn) [M1TFV] | 0.301% and 0.201% and 0.21% | 3.432% and 0.342% and 0.154% | 34.73% and 38.138% and 34.265% | 36.744% and 32.312% and 31.881% | 44.656% and 35.338% and 30.526% | 36.768% and 35.49% and 33.571% | 35.681% and 31.592% and 30.989% | 32.583% and 32.39% and 32.614% | 35.706% and 34.095% and 37.882% | 0.0003886 | 0.276 (≈ 0.338 µM) | 2 (≈ 2.44 µM) | 109 | 44.264 and 8.411 and 11.973 | 42.363 and 4.488 and 5.375 and 2.931 | 26.663 and 5.953 and 9.965 and 9.489 | 19.017 and 5.47 and 12.158 and 10.741 | 23.553 and 6.74 and 16.993 and 9.609 | 22.939 and 4.566 and 20.189 and 10.617 | 10.793 and 9.389 and 15.273 and 9.576 | prodrug stability in human plasma [2]: greater prodrug stability is observed following heat-inactivation; HIV-1 RT activity (Figure 2C source data) (HIV-1ADA; 500 nM): 1.18 and 0.8 and 2.373 and 0.711; HIV-1 RT activity (Figure 2C source data) (HIV-1ADA; 5000 nM): 0.069 and 0.042 and 0.107 and 0.063; hydrolytic stability across pH [3]: enhanced prodrug stability over a broader pH range
C[C@@H](Cn1cnc2c(N)ncnc21)OCP(=O)(O)OP(=O)(O)OP(=O)(O)O [TFV-DP, TFV-diphosphate] |  |  |  |  |  |  |  |  |  |  |  |  |  |  |  |  |  |  |  |  | intracellular half-life [4]: 60 to 100 h; EC90 linked to HIV-1 prevention (HIV-1): 16−48 fmol/10^6 cells; human EC90 (HIV-1): 40 fmol/10^6 cells
C[C@H](Cn1cnc2c(N)ncnc21)OCP(=O)(O)O [TFV] | 36.84% and 37.843% | 31.924% and 40.715% and 38.216% | 37.754% and 35.95% and 31.757% | 42.49% and 36.095% and 44.333% | 39.731% and 37.304% and 35.107% | 38.31% and 35.838% and 38.644% | 32.278% and 38.458% and 41.384% | 41.35% and 30.768% | 42.035% and 35.935% and 39.23% |  |  |  |  |  |  |  |  |  |  |  | 
CCCCCCCCCCCCCCCCCCCCCCOC(=O)[C@H](C)NP(=O)(CO[C@H](C)Cn1cnc2c(N)ncnc21)Oc1ccccc1 (stereo partly drawn) [M2TFV] |  | 34.257% and 38.787% and 40.022% | 32.595% and 37.488% and 35.513% | 41.233% and 50.41% and 33.492% | 35.706% and 41.394% and 37.81% | 40.045% and 36.193% and 55.429% | 38.435% and 46.924% and 37.203% | 35.618% and 35.142% and 32.671% | 34.002% and 36.532% and 30.423% | 0.01251 | 12.8 (≈ 17.2 µM) | 7 (≈ 9.42 µM) | 45.8 | 13.739 and 9.752 and 35.142 and 27.238 | 8.448 and 5.392 and 11.763 and 48.649 | 4.57 and 12.93 and 25.65 | 20.147 and 8.847 and 17.324 and 34.222 | 8.161 and 9.38 and 10.627 and 29.921 | 11.203 and 10.291 and 8.118 and 21.328 | 5.19 and 8.444 and 10.014 and 13.232 | HIV-1 RT activity (Figure 2C source data) (HIV-1ADA; 500 nM): 0.193 and 0.074 and 0.345 and 0.105; HIV-1 RT activity (Figure 2C source data) (HIV-1ADA; 5000 nM): 0.109 and 0.079 and 0.087 and 0.068
